Experimental data: the NIST ThermoML archive (doi:10.1021/je300146k)
Numbers after ± are expanded uncertainties.

Conditions: 298.15 K; 101.33 kPa; Liquid; Vibrating tube method

SMILES | mass density [kg/m3]
CCCCCCC [heptane] | 679.71 ± 0.21
OCc1ccccc1 [benzenemethanol] | 1043.53 ± 0.29
CCCCCCCCCCCCCC [tetradecane] | 759.27 ± 0.26
CCCCCCCCCCCC [dodecane] | 741.54 ± 0.58
CCCCCCCCCC [decane] | 726.43 ± 0.26
CCCCCCCC [octane] | 698.76 ± 0.26
